In patent publication US20090275606A1, “Heterocyclic Compounds as MEK Inhibitors” (Novartis AG, priority 2008, published 2009) one finds GI50 data, which are given here for 14 compounds.

The test system of this assay is A375 cells. The assay is described as follows: Cell viability assay in A375 cells (XTT). In kind it is cell-based. The following applies: Homo sapiens, A-375, 72 h, three days after compound addition. The protocol: The cell viability assay in A375 cells is set up in a 96-well plate format using XTT.
XTT is a yellow tetrazolium salt that is cleaved to an orange formazan dye by the mitochondria of metabolically active cells. The procedure allows for rapid determination in a microtitre plate, to give reproducible and sensitive results.
A375 cells are grown in DMEM media containing 10% FBS and 1 mM sodium pyruvate. Cells are trypsinized and seeded at 1000 cells/well. After allowing the cells to adhere overnight, compound is added to the wells at the following final concentrations: 10, 3, 1, 0.3, 0.1, 0.03, 0.01, 0.001, and 0.0001 μM. The assay is set up in triplicates for each concentration. DMSO concentrations are kept at 0.5%/well. Three days after compound addition, the XTT assay is performed. Wells are washed once with PBS. 100 μL of DMEM media without phenol red or FBS is added to each well. A working solution of XTT containing 1 mg/ml XTT and 100 μL of PMS (stock concentration 0.383 mg/ml) per 5 ml is prepared. 50 μL of the working solution of XTT is added to each well. Absorbance of the plate is read at 465 nm using a Spectramax 190 (Molecular Devices). The absorbance from wells with media and XTT alone, but without cells is considered the blank and subtracted from readings from all wells.
Percentage viability is calculated considering the blank subtracted value from wells treated with DMSO alone as 100% viable. GI50 values are calculated using Graphpad Prism, using non-linear regression curve fit for sigmoidal dose response (variable slope).
The cell viability assay is further described in Scudiero, et. al., Cancer Research (1988) 48, 4827-4833; Weislow, et. al., J. Natl. Cancer Institute, (1989) 81, 577-586; and Roehm, et. al., J. Immunol. Methods [1991]142:257-265.
In general terms: Formazan colour is commonly taken as a measure of viable cells.
The compound `O=C(NOCCO)c1c(Nc2ccc(I)cc2F)cc(=O)n2c1CCC2` [Compound 40] displayed a GI50 of 0.7 nM. `O=C(NOCC1CC1)c1c(Nc2ccc(I)cc2F)c(F)c(=O)n2c1CCC2` [Compound 45] yielded a GI50 of 0.4 nM. For `CCONC(=O)c1c(Nc2ccc(I)cc2F)cc(=O)n2c1CCC2` [Compound 42], the GI50 is 3.6 nM. Then `CONC(=O)c1c(Nc2ccc(Br)cc2F)cc(=O)n2c1CCC2` [Compound 6], with 150 nM; and `O=C(NOCC1CC1)c1c(Nc2ccc(Br)cc2F)c(F)c(=O)n2c1CCC2` [Compound 20], with 55 nM; and `CCONC(=O)c1c(Nc2ccc(Br)cc2F)c(C)c(=O)n2c1CCC2` [Compound 27], with 60 nM. The value for `O=C(NOCCO)c1c(Nc2ccc(I)cc2F)c(F)c(=O)n2c1CCC2` [Compound 46] was 6.7 nM. Then `O=C(NOCC1CC1)c1c(Nc2ccc(Br)cc2F)cc(=O)n2c1CCC2` [Compound 4], with 14 nM; and `NC(=O)c1c(Nc2ccc(I)cc2F)cc(=O)n2c1CCC2` [Compound 38], with 73 nM. For `Cc1c(Nc2ccc(Br)cc2F)c(C(=O)NOCC2CC2)c2n(c1=O)CCC2` [Compound 24], the GI50 stood at 36 nM. Regarding `CONC(=O)c1c(Nc2ccc(I)cc2F)cc(=O)n2c1CCC2` [Compound 41], it took 9 nM to inhibit growth by half (GI50). Regarding `CCONC(=O)c1c(Nc2ccc(Br)cc2F)cc(=O)n2c1CCC2` [Compound 10], halving of growth (GI50) required 40 nM.

In turn, `O=C(NOCC1CC1)c1c(Nc2ccc(I)cc2F)cc(=O)n2c1CCC2` [Compound 39] had a GI50 of 0.8 nM. Regarding `Cc1c(Nc2ccc(Br)cc2F)c(C(=O)NOCCO)c2n(c1=O)CCC2` [Compound 25], halving of growth (GI50) required 10 nM.

Usually GI50 stands for the concentration giving 50% growth inhibition. Low values mean greater sensitivity of the cells, high ones lower sensitivity of the cells.
